Assay results: patent US20090264292A1, “HERBICIDAL COMPOSITION” (ISHIHARA SANGYO KAISHA, LTD., priority 2005, published 2009)

Key:
Assay type in all cases: in vivo
[1] = system: velvetleaf (Abutilon theophrasti MEDIC.); assay: Test Example 1: pot test, foliar application, velvetleaf; settings: 2.8 leaf stage, 21st day after application, read-out: Velvetleaf Growth inhibition rate (%) Observed
Method: (§1) Upland field soil was put into a 1/1,000,000 ha pot, and seeds of various plants were sown. Then, when the plants reached the prescribed leaf stages ((1) 3.6 leaf stage of crabgrass (Digitaria sanguinalis L.), and (2), 2.8 leaf stage of velvetleaf (Abutilon theophrasti MEDIC.)), a prescribed amount of the herbicidal composition was diluted with water corresponding to 300 L/ha, and foliar application was carried out by means of a small size spray. On the 21st day after the application, the state of growth of each plant was visually observed, and the growth inhibition rate (%) evaluated in accordance with the following evaluation standard (observed value) and the growth inhibition rate (%) calculated by the above-mentioned Colby method (expected value) are shown in Tables 1 and 2 .
(§2) Growth inhibition rate (%)=0% (equivalent to the non-treated area) to 100% (complete kill)

[2] = system: crabgrass (Digitaria sanguinalis L.); assay: Test Example 1: pot test, foliar application, crabgrass; settings: 3.6 leaf stage, 21st day after application, read-out: Crabgrass Growth inhibition rate (%) Observed
Method: as §1, §2

[3] = system: velvetleaf (Abutilon theophrasti MEDIC.); assay: Test Example 3: pot test, foliar application, velvetleaf; settings: 2.3 to 2.5 leaf stage, 14th day after application, read-out: Velvetleaf Growth inhibition rate (%) Observed
Method: as §2
(§3) Upland field soil was put into a 1/1,000,000 ha pot, and seeds of velvetleaf (Abutilon theophrasti MEDIC.) were sown. Then, when velvetleaf reached 2.3 to 2.5 leaf stage, a prescribed amount of the herbicidal composition was diluted with water corresponding to 300 L/ha, and foliar application was carried out by means of a small size spray.
On the 14th day after the application, the state of growth of velvetleaf was visually observed and evaluated in the same manner as in the above Test Example 1.

[4] = system: velvetleaf (Abutilon theophrasti MEDIC.); assay: Test Example 2: pot test, foliar application, velvetleaf; settings: 2.9 leaf stage, 21st day after application, read-out: Velvetleaf Growth inhibition rate (%) Observed
Method: as §2
as §3, with “2.9” for “2.3 to 2.5”
On the 21st day after the application, the state of growth of velvetleaf was visually observed and evaluated in the same manner as in the above Test Example 1.

SMILES	inhibition at 50 g/ha ([1]; 50 g/ha) [%]	inhibition at 25 g/ha ([2]; 25 g/ha) [%]	inhibition at 5 g/ha ([3]; 5 g/ha) [%]	inhibition at 10 g/ha ([3]; 10 g/ha) [%]	inhibition at 15 g/ha ([3]; 15 g/ha) [%]	inhibition at 25 g/ha ([4]; 25 g/ha) [%]	inhibition at 250 g/ha ([1]; 250 g/ha) [%]	inhibition at 500 g/ha ([1]; 500 g/ha) [%]	inhibition at 250 g/ha ([2]; 250 g/ha) [%]	inhibition at 500 g/ha ([2]; 500 g/ha) [%]	inhibition at 1000 g/ha ([3]; 1000 g/ha) [%]	inhibition at 1500 g/ha ([3]; 1500 g/ha) [%]	inhibition at 2000 g/ha ([3]; 2000 g/ha) [%]	inhibition at 500 g/ha ([4]; 500 g/ha) [%]
COc1cc(OC)nc(NC(=O)NS(=O)(=O)c2ncccc2C(=O)N(C)C)n1 [Compound A-1, 2-(4,6-dimethoxypyrimidin-2-ylcarbamoylsulfamoyl)-N,N-dimethylnicotinamide]	60	53	5	8	12	38	–	–	–	–	–	–	–	–
CCNc1nc(Cl)nc(NC(C)(C)C)n1 [Compound B-1, N^2-tert-butyl-6-chloro-N^4-ethyl-1,3,5-triazine-2,4-diamine]	–	–	–	–	–	–	57	58	5	8	37	43	43	47
